The NIST ThermoML archive (doi:10.1021/acs.jced.8b00879)

Assay: mn = molality of the nth substance listed, in mol/kg
Settings: 85 kPa, Liquid; for viscosity: Capillary tube (Ostwald / Ubbelohde) method; for speed of sound: Frequency=3 MHz, Single path-length method; for mass density: Vibrating tube method

C[N+](C)(C)CCO.O=C([O-])[C@@H]1CCCN1 [2-hydroxy-N,N,N-trimethylethanaminium L-prolinate] + O
Settings	mass density [kg/m3]	speed of sound [m/s]	viscosity [mPa·s]
288.15 K, m1 = 0.0136	999.51	1468.7	1.325
288.15 K, m1 = 0.0217	999.76	1469.9	1.337
288.15 K, m1 = 0.0329	1000.09	1471.5	1.351
288.15 K, m1 = 0.044	1000.42	1473.1	1.364
288.15 K, m1 = 0.0525	1000.67	1474.2	1.375
288.15 K, m1 = 0.0626	1000.96	1475.6	1.388
298.15 K, m1 = 0.0136	997.47	1499	1.059
298.15 K, m1 = 0.0217	997.71	1500.2	1.067
298.15 K, m1 = 0.0329	998.05	1501.8	1.077
298.15 K, m1 = 0.044	998.38	1503.4	1.089
298.15 K, m1 = 0.0525	998.63	1504.5	1.096
298.15 K, m1 = 0.0626	998.92	1505.9	1.104
308.15 K, m1 = 0.0136	994.45	1522.1	0.879
308.15 K, m1 = 0.0217	994.7	1523.3	0.884
308.15 K, m1 = 0.0329	995.04	1524.8	0.894
308.15 K, m1 = 0.044	995.37	1526.4	0.902
308.15 K, m1 = 0.0525	995.63	1527.5	0.908
308.15 K, m1 = 0.0626	995.92	1528.9	0.916
318.15 K, m1 = 0.0136	990.64	1538	0.74
318.15 K, m1 = 0.0217	990.9	1539.1	0.746
318.15 K, m1 = 0.0329	991.24	1540.7	0.753
318.15 K, m1 = 0.044	991.58	1542.2	0.76
318.15 K, m1 = 0.0525	991.84	1543.3	0.764
318.15 K, m1 = 0.0626	992.13	1544.6	0.772

C[N+](C)(C)CCO.NCC(=O)[O-] [2-hydroxy-N,N,N-trimethylethanaminium glycinate] + O
Settings	mass density [kg/m3]	speed of sound [m/s]	viscosity [mPa·s]
288.15 K, m1 = 0.0111	999.43	1468.1	1.251
288.15 K, m1 = 0.0214	999.73	1469.5	1.263
288.15 K, m1 = 0.0318	1000.03	1470.8	1.275
288.15 K, m1 = 0.0417	1000.3	1472.1	1.288
288.15 K, m1 = 0.0534	1000.63	1473.6	1.302
288.15 K, m1 = 0.0619	1000.85	1474.7	1.313
298.15 K, m1 = 0.0111	997.68	1498.2	1
298.15 K, m1 = 0.0214	997.97	1499.4	1.011
298.15 K, m1 = 0.0318	998.25	1500.6	1.02
298.15 K, m1 = 0.0417	998.57	1501.7	1.03
298.15 K, m1 = 0.0534	998.8	1503	1.042
298.15 K, m1 = 0.0619	997.38	1504	1.049
308.15 K, m1 = 0.0111	994.36	1521.1	0.832
308.15 K, m1 = 0.0214	994.66	1522.2	0.841
308.15 K, m1 = 0.0318	994.96	1523.2	0.851
308.15 K, m1 = 0.0417	995.24	1524.1	0.858
308.15 K, m1 = 0.0534	995.56	1525.2	0.869
308.15 K, m1 = 0.0619	995.79	1526	0.877
318.15 K, m1 = 0.0111	990.55	1536.9	0.706
318.15 K, m1 = 0.0214	990.85	1537.7	0.714
318.15 K, m1 = 0.0318	991.15	1538.6	0.722
318.15 K, m1 = 0.0417	991.43	1539.4	0.729
318.15 K, m1 = 0.0534	991.75	1540.5	0.737
318.15 K, m1 = 0.0619	991.99	1541.2	0.741
